The text below walks through data of patent EP3154958B1, “PHOSPHATIDYLINOSITOL 3-KINASE INHIBITORS” (Gilead Sciences, Inc., priority 2014, dated 2015).

What all share (assay type): biochemical
The target of test [1] is T1, PI3Kβ (Homo sapiens, UniProt P42338).
T1 construct: made in house
Put plainly: TR-FRET enzymatic activity assay, PI3Kβ. The method in brief:
(§1)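 Compounds were profiled per isoform in a biochemical kinase reaction, with activity detected by time-resolved fluorescence resonance energy transfer.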
For orientation: TR-FRET usually uses a lanthanide donor and a delayed reading to cut background.

The target in test [2] is T2, PI3Kδ (Homo sapiens, UniProt O00329).
T2 construct: made in house
T2 sequence (O00329 whole entry): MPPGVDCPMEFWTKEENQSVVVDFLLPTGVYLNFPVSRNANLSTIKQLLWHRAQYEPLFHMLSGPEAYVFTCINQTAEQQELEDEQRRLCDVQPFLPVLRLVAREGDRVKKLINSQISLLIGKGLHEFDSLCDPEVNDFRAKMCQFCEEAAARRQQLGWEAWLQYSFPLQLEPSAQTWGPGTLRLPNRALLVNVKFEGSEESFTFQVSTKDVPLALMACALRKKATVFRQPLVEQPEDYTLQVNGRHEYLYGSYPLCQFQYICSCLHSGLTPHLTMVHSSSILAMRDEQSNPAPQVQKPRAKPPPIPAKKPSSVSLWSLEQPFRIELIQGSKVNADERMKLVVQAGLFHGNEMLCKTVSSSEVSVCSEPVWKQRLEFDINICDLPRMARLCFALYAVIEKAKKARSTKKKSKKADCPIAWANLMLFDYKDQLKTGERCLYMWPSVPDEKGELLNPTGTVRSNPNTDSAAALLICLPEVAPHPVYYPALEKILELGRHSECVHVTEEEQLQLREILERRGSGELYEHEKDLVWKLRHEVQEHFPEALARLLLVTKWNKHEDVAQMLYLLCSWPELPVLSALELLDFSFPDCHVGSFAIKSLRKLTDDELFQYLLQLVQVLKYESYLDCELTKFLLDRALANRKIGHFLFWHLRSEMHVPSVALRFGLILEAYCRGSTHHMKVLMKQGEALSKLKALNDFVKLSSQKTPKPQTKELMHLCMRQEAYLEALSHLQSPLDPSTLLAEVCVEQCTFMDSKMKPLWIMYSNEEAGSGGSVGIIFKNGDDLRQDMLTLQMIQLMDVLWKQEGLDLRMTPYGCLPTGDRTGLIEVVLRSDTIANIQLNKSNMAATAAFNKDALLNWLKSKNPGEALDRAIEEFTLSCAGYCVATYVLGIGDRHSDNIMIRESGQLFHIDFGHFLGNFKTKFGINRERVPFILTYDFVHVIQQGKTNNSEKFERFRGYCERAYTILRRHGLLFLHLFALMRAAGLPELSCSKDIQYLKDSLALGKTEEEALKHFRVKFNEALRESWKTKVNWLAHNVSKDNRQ
T2 sequence (P27986 whole entry partner): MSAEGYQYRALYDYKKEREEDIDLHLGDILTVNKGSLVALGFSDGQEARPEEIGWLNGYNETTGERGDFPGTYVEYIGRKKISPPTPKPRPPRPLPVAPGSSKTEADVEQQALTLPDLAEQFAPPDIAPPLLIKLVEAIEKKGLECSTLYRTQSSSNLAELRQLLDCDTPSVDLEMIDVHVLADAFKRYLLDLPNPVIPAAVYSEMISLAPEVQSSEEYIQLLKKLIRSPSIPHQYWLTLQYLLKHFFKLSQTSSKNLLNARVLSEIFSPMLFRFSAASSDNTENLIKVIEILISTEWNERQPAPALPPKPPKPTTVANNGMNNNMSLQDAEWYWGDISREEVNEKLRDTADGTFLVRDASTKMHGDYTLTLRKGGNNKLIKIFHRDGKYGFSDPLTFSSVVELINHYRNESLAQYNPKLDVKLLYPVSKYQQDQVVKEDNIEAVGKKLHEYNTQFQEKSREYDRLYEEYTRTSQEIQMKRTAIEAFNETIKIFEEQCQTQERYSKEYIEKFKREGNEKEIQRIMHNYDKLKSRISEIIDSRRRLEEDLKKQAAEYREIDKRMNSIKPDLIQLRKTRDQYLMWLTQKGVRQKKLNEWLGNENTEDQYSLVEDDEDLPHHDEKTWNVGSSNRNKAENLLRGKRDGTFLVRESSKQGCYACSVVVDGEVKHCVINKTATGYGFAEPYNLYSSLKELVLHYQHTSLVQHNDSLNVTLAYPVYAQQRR
In words: TR-FRET enzymatic activity assay, PI3Kδ. The gist of the method:
as §1

The target of test [3] is T3, PI3Kγ (Homo sapiens, UniProt P48736).
T3 construct: made in house
T3 sequence (P48736 whole entry): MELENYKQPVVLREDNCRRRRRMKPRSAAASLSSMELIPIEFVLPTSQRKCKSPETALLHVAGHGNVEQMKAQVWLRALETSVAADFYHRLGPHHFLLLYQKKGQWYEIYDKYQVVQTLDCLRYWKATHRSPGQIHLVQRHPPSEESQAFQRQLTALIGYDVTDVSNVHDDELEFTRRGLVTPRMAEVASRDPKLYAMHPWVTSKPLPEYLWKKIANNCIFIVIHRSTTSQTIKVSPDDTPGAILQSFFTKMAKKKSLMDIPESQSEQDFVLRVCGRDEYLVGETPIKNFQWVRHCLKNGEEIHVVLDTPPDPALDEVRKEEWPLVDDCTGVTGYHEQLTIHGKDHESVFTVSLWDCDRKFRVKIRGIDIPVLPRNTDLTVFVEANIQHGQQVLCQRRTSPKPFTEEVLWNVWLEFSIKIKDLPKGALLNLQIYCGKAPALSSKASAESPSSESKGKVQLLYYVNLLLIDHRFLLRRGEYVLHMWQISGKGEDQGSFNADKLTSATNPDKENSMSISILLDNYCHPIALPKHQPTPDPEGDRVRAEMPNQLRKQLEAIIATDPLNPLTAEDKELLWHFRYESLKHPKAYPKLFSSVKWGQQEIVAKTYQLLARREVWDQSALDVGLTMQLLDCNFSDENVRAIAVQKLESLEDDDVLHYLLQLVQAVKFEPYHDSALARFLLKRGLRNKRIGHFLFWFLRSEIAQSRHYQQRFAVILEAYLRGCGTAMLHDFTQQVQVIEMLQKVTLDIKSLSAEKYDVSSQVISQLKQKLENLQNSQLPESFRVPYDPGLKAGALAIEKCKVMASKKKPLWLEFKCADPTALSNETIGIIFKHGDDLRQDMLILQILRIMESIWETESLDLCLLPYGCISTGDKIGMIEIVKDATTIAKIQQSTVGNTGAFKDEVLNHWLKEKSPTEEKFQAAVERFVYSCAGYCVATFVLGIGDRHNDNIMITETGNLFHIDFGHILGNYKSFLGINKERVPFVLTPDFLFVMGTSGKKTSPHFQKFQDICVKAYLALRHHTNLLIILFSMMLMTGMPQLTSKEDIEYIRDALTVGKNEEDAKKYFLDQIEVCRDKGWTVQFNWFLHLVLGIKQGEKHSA
T3 sequence (Q8WYR1 whole entry partner): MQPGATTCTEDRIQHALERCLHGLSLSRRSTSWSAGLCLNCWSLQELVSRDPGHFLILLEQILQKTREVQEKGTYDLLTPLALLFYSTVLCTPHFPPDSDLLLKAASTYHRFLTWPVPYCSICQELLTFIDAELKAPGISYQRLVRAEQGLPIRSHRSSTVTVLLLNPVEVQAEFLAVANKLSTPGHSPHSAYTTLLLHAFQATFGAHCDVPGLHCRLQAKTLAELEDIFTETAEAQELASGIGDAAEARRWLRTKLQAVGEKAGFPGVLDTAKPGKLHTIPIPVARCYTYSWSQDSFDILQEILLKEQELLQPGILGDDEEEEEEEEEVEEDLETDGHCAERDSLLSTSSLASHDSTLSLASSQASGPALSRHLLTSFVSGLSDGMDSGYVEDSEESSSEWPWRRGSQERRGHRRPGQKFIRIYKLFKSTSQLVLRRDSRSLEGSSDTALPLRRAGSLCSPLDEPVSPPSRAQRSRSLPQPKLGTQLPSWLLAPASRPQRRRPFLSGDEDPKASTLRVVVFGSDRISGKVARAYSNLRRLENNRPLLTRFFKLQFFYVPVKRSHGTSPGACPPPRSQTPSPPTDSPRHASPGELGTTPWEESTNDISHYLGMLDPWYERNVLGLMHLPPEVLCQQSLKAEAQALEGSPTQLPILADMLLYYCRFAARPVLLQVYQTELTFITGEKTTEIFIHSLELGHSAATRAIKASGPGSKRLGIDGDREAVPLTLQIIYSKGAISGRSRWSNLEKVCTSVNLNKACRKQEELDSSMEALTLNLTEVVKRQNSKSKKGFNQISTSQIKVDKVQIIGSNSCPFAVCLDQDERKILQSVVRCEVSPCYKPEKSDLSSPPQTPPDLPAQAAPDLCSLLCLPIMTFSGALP
In words: TR-FRET enzymatic activity assay, PI3Kγ. The method in brief: as §1

[4] abbreviates: recombinant heterodimeric PI3Kβ 25-50 pM, 2× Km ATP, 30 minutes at 25°C.
Where [5] appears, read: recombinant heterodimeric PI3Kδ 25-50 pM, 2× Km ATP, 30 minutes at 25°C.
[6] abbreviates: recombinant heterodimeric PI3Kγ 2 nM, 2× Km ATP, 30 minutes at 25°C.

SMILES strings stand for the structures. pIC50: −log10 of the molar value. Like-named read-outs stand apart in the source and are kept apart here. A value given as a limit tells only on which side of the number the result lay.

T1 sequence (P42338 whole entry): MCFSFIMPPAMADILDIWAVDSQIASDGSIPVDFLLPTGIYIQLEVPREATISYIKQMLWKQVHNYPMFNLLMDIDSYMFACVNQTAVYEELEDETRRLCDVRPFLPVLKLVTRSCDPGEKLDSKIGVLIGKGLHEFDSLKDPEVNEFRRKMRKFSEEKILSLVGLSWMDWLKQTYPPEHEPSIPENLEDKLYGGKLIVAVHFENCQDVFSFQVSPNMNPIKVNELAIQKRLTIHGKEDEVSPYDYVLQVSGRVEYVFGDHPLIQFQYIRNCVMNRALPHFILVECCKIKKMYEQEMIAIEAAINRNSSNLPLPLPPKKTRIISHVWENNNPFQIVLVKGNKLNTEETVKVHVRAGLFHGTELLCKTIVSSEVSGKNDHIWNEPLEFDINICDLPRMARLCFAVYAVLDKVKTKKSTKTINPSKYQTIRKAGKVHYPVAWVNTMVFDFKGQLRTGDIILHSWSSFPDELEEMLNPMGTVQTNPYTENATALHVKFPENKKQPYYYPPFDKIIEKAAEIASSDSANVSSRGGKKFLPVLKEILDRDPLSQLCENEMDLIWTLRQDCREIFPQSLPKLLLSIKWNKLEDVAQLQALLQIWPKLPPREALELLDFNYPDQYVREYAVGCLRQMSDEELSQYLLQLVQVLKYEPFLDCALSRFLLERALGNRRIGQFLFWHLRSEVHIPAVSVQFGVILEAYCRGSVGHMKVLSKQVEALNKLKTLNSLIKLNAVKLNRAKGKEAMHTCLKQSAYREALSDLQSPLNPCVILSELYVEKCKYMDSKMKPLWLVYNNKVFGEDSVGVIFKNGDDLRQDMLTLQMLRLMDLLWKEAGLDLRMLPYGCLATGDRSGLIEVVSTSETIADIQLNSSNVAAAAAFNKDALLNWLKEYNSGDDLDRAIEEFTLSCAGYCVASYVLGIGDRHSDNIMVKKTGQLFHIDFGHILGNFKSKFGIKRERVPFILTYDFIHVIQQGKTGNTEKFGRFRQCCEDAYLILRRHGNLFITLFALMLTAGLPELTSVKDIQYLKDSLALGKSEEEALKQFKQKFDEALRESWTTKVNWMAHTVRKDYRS
T1 sequence (P27986 whole entry partner): as the sequence (P27986 whole entry partner) above

What is called pIC50 is −log10 of the IC50, conventionally taken in molar units. With `C[C@H](Nc1ncnc(N)c1C#N)c1nc2cccc(Cl)c2c(=O)n1N1CCCNCC1` [Compound 66, (S)-4-amino-6-((1-(5-chloro-3-(1,4-diazepan-1-yl)-4-oxo-3,4-dihydroquinazolin-2-yl)ethyl)amino)pyrimidine-5-carbonitrile], the pIC50 in test [1] (setting [4]) is 6.43; in test [2] (setting [5]), 7.89; in test [3] (setting [6]), less than 5.00.

Regarding `O=c1c2c(F)ccc(F)c2nc([C@@H](Nc2ncnn3ccnc23)C2CC2)n1N1CCNCC1` [Compound 41, (S)-2-(cyclopropyl(imidazo[2,1-f][1,2,4]triazin-4-ylamino)methyl)-5,8-difluoro-3 - (piperazin-1-yl)quinazolin-4(3H)-one], the negative logarithm of the IC50 (pIC50) in test [1] (setting [4]) is 6.68; in test [2] (setting [5]), 7.62; in test [3] (setting [6]), less than 5.00.

As for `O=c1c2c(Cl)cccc2nc([C@@H](Nc2ncnc3scnc23)C2CC2)n1N1CCNCC1` [Compound 78, (S)-5-chloro-2-(cyclopropyl(thiazolo[5,4-d]pyrimidin-7-ylamino)methyl)-3-(piperazin-1-yl)quinazolin-4(3H)-one], the pIC50 was 7.74 in test [1] (setting [4]), 8.70 in test [2] (setting [5]) and less than 5.00 in test [3] (setting [6]).

On to `C[C@H](Nc1nc(N)nc(Cl)c1C#N)c1nc2cccc(Cl)c2c(=O)n1N1CCN(CC(F)(F)F)CC1` [Compound 110, (S)-2-amino-4-chloro-6-((1-(5-chloro-4-oxo-3-(4-(2,2,2-trifluoroethyl)piperazin-1-yl)-3,4-dihydroquinazolin-2-yl)ethyl)amino)pyrimidine-5-carbonitrile], for which the values for the pIC50 in test [1] (setting [4]), in test [2] (setting [5]) and in test [3] (setting [6]) were 5.85, 7.39 and 5.55, respectively.

As for `C[C@H](Nc1nc(N)nc(N)c1C#N)c1nc2cccc(Cl)c2c(=O)n1N1CCNC2(CC2)C1` [Compound 7, (S)-2,4-diamino-6-((1-(5-chloro-4-oxo-3-(4,7-diazaspiro[2.5]octan-7-yl)-3,4-dihydroquinazolin-2-yl)ethyl)amino)pyrimidine-5-carbonitrile], the negative-log IC50 (pIC50) is 8.70 in test [1] (setting [4]), 9.10 in test [2] (setting [5]) and 6.07 in test [3] (setting [6]).

With `C[C@H](Nc1nc(N)nc(N)c1C#N)c1nc2cccc(Cl)c2c(=O)n1[C@@H]1CCOC1` [Compound 137, 2,4-diamino-6-(((S)-1-(5-chloro-4-oxo-3-((R)-tetrahydrofuran-3-yl)-3,4-dihydroquinazolin-2-yl)ethyl)amino)pyrimidine-5-carbonitrile], the pIC50 was 7.33 in test [1] (setting [4]), 8.30 in test [2] (setting [5]) and 6.64 in test [3] (setting [6]).

`Cc1nc(N)nc(N[C@@H](C)c2nc3c(F)ccc(Cl)c3c(=O)n2C2[C@H]3CNC[C@@H]23)c1C#N` (stereo in doubt) [Compound 16, 4-(((1S)-1-(3-((1R,5S)-3-azabicyclo[3.1.0]hexan-6-yl)-5-chloro-8-fluoro-4-oxo-3,4-dihydroquinazolin-2-yl)ethyl)amino)-2-amino-6-methylpyrimidine-5-carbonitrile]: the pIC50 in test [1] (setting [4]) is 8.70; in test [2] (setting [5]), 8.22; in test [3] (setting [6]), 5.59.

As for `CC[C@H](Nc1nc(N)nc(C)c1C#N)c1nc2cccc(Cl)c2c(=O)n1N1CCNCC1` [Compound 44, (S)-2-amino-4-((1-(5-chloro-4-oxo-3-(piperazin-1-yl)-3,4-dihydroquinazolin-2-yl)propyl)amino)-6-methylpyrimidine-5-carbonitrile], the pIC50 was 8.70 in test [1] (setting [4]), 9.00 in test [2] (setting [5]) and 5.74 in test [3] (setting [6]).

As to `C[C@H](Nc1ncnc2ccc(Cl)nc12)c1nc2c(Cl)ccc(Cl)c2c(=O)n1N1CCNCC1` [Compound 52, (S)-5,8-dichloro-2-(1-((6-chloropyrido[3,2-d]pyrimidin-4-yl)amino)ethyl)-3-(piperazinl-yl)quinazolin-4(3H)-one], the values for the pIC50 in test [1], in test [2] and in test [3] were 8.10, 8.52 and 5.51, respectively.

With `C[C@H](Nc1nc(N)nc(N)c1C#N)c1nc2cccc(Cl)c2c(=O)n1N1CCN(C2COC2)CC1` [Compound 97, (S)-2,4-diamino-6-((1-(5-chloro-3-(4-(oxetan-3-yl)piperazin-1-yl)-4-oxo-3,4-dihydroquinazolin-2-yl)ethyl)amino)pyrimidine-5-carbonitrile], the pIC50 in test [1] (setting [4]) was 7.03; in test [2] (setting [5]), 7.82; in test [3] (setting [6]) it was 6.34.

For `O=c1c2c(Cl)ccc(F)c2nc([C@@H](Nc2ncnn3ccnc23)C2CC2)n1N1CCNCC1` [Compound 47, (S)-5-chloro-2-(cyclopropyl(imidazo[2,1-f][1,2,4]triazin-4-ylamino)methyl)-8-fluoro-3-(piperazin-1-yl)quinazolin-4(3H)-one], the results for the negative logarithm of the IC50 (pIC50) in test [1] (setting [4]), in test [2] (setting [5]) and in test [3] (setting [6]) were 7.32, 8.30 and less than 5.00, respectively.

For the molecule `C[C@H](Nc1ncnc(N)c1C#N)c1nc2cccc(Cl)c2c(=O)n1C1CCNC1` (stereo partly drawn) [Compound 85, 4-amino-6-(((1S)-1-(5-chloro-4-oxo-3-(pyrrolidin-3-yl)-3,4-dihydroquinazolin-2-yl)ethyl)amino)pyrimidine-5-carbonitrile], the values for the pIC50 in test [1] (setting [4]), in test [2] (setting [5]) and in test [3] (setting [6]) were 6.80, 8.15 and less than 5.00, respectively.

Regarding `C[C@H](Nc1nc(N)nc(N)c1C#N)c1nc2cccc(Cl)c2c(=O)n1[C@H]1CCCNCC1` [Compound 8, 2,4-diamino-6-(((S)-1-(3-((S)-azepan-4-yl)-5-chloro-4-oxo-3,4-dihydroquinazolin-2-yl)ethyl)amino)pyrimidine-5-carbonitrile], the negative logarithm of the IC50 (pIC50) was 7.21 in test [1] (setting [4]), 8.70 in test [2] (setting [5]) and less than 5.00 in test [3] (setting [6]).

As to `CC[C@H](Nc1nc(N)nc(N)c1C#N)c1nc2cccc(Cl)c2c(=O)n1C1CCNCC1` [Compound 22, (S)-2,4-diamino-6-((1-(5-chloro-4-oxo-3-(piperidin-4-yl)-3,4-dihydroquinazolin-2-yl)propyl)amino)pyrimidine-5-carbonitrile], the pIC50 in test [1] (setting [4]) was 7.82; in test [2] (setting [5]) it was 8.30; in test [3] (setting [6]), less than 5.00.

For the molecule `C[C@H](Nc1nc(N)nc(N)c1Cl)c1nc2cccc(Cl)c2c(=O)n1C1CCNCC1` [Compound 25, (S)-5-chloro-2-(1-((2,6-diamino-5-chloropyrimidin-4-yl)amino)ethyl)-3-(piperidin-4-yl)quinazolin-4(3H)-one], the results for the pIC50 in test [1] (setting [4]), in test [2] (setting [5]) and in test [3] (setting [6]) were 7.00, 7.60 and less than 5.00, respectively.

For the molecule `C[C@H](Nc1ncnc(N)c1C#N)c1nc2cccc(Cl)c2c(=O)n1C1CCCNCC1` (stereo partly drawn) [Compound 84, 4-amino-6-(((1S)-1-(3-(azepan-4-yl)-5-chloro-4-oxo-3,4-dihydroquinazolin-2-yl)ethyl)amino)pyrimidine-5-carbonitrile], the values for the pIC50 in test [1] (setting [4]), in test [2] (setting [5]) and in test [3] (setting [6]) were 7.49, 8.70 and less than 5.00, respectively.

As to `C[C@H](Nc1nc(N)nc(N)c1Cl)c1nc2cccc(Cl)c2c(=O)n1[C@@H]1CCCNCC1` [Compound 13, 3-((R)-azepan-4-yl)-5-chloro-2-((S)-1-((2,6-diamino-5-chloropyrimidin-4-yl)amino)ethyl)quinazolin-4(3H)-one], the pIC50 in test [1] (setting [4]) is 6.74; in test [2] (setting [5]), 7.48; in test [3] (setting [6]), less than 5.00.

Consider `C[C@H](Nc1ncnc(N)c1C#N)c1nc2cccc(Cl)c2c(=O)n1N1CCNC2(CC2)C1` [Compound 63, (S)-4-amino-6-((1-(5-chloro-4-oxo-3-(4,7-diazaspiro[2.5]octan-7-yl)-3,4-dihydroquinazolin-2-yl)ethyl)amino)pyrimidine-5-carbonitrile], for which the pIC50 in test [1] (setting [4]) was 8.30; in test [2] (setting [5]) it was 8.70; in test [3] (setting [6]), less than 5.00.

Take `C[C@H](Nc1ncnc(N)c1C#N)c1nc2cccc(Cl)c2c(=O)n1C1CCNCC1` [Compound 86, (S)-4-amino-6-((1-(5-chloro-4-oxo-3-(piperidin-4-yl)-3,4-dihydroquinazolin-2-yl)ethyl)amino)pyrimidine-5-carbonitrile]: the figures for the pIC50 in test [1] (setting [4]), in test [2] (setting [5]) and in test [3] (setting [6]) were 7.08, 8.52 and less than 5.00, respectively.

For `C[C@H](Nc1nc(N)nc(N)c1C#N)c1nc2cccc(Cl)c2c(=O)n1[C@H]1CCOC1` [Compound 136, 2,4-diamino-6-(((S)-1-(5-chloro-4-oxo-3-((S)-tetrahydrofuran-3-yl)-3,4-dihydroquinazolin-2-yl)ethyl)amino)pyrimidine-5-carbonitrile], the pIC50 in test [1] (setting [4]) is 6.72; in test [2] (setting [5]) it was 8.70; in test [3] (setting [6]) it was 6.59.

`CC[C@H](Nc1nc(N)nc(N)c1C#N)c1nc2cccc(Cl)c2c(=O)n1N1CCN(Cc2ccc(F)cc2)CC1` [Compound 91, (S)-2,4-diamino-6-((1-(5-chloro-3-(4-(4-fluorobenzyl)piperazin-1-yl)-4-oxo-3,4-dihydroquinazolin-2-yl)propyl)amino)pyrimidine-5-carbonitrile]: the results for the pIC50 in test [1] (setting [4]), in test [2] (setting [5]) and in test [3] (setting [6]) were 7.23, 7.66 and 6.03, respectively.

Turning to `C[C@H](Nc1nc(N)nc(N)c1C#N)c1nc2cccc(Cl)c2c(=O)n1N1CCN(CC(F)F)CC1` [Compound 111, (S)-2,4-diamino-6-((1-(5-chloro-3-(4-(2,2-difluoroethyl)piperazin-1-yl)-4-oxo-3,4-dihydroquinazolin-2-yl)ethyl)amino)pyrimidine-5-carbonitrile], the pIC50 was 6.28 in test [1] (setting [4]), 7.62 in test [2] (setting [5]) and 6.14 in test [3] (setting [6]).
